Where two headings read alike, the source gives them in different places.
What was measured:
FGFR2 (UP) = FGFR2 (UP) (Homo sapiens (Human), UniProt P21802); experiment: FGFR Enzymatic Assay, FGFR2 un-phosphorylated
Description: The inhibitor potency of the exemplified compounds was determined in an enzyme discontinuous assay that measures peptide phosphorylation using FRET measurements to detect product formation. Inhibitors were serially diluted in DMSO and a volume of 0.2 μL was transferred to the wells of a 384-well plate. For the isoforms of FGFR (−1, −2, −3 wild-type and mutant isoforms, −4) including phosphorylated (P) and un-phosphorylated (UP) proteins, a 5 μL/well volume of enzyme diluted in assay buffer (50 mM HEPES, 10 mM MgCl2, 1 mM EGTA, 0.01% Tween-20, 5 mM DTT, pH 7.5) was added to the plate and pre-incubated with inhibitor for 5 to 15 minutes at ambient temperature. Appropriate controls (enzyme blank and enzyme with no inhibitor) were included on the plate. The reaction was initiated by the addition of a 5 μL/well volume containing both biotinylated [sequence] […] The plate was allowed to equilibrate for −10 minutes at ambient temperature before scanning on a PheraStar plate reader (BMG Labtech) instrument.
Either GraphPad prism or XLfit was used to analyze the data. The IC50 values were derived by fitting the data to a four parameter logistic equation producing a sigmoidal dose-response curve with a variable Hill coefficient. Prism equation: Y=Bottom+(Top−Bottom)/(1+10^((LogIC50−X)*Hill slope)); XLfit equation: Y=(A+((B−A)/(1+((X/C)^D)))) where X is the logarithm of inhibitor concentration and Y is the response.

ALK2 (aa 147-end) = ALK2 (aa 147-end) (Homo sapiens (Human), UniProt Q04771); experiment: ALK2 HTRF Assay; format: biochemical
Description: The enzymatic assays were conducted in white 384-well polystyrene plates in a final volume of 8 μL. The inhibitors were serially diluted in DMSO and added to the plate wells prior to addition of the other reaction components. The assays were carried out at 25° C. in the assay buffer (50 mM HEPES, pH 7.1, 10% Glycerol, 0.01% Brij50, 10 mM MgCl2, 1 mM EGTA, 5 mM DTT, and 0.01% BSA), containing 50 nM LANCE Ultra ULight™-DNA Topoisomerase 2-alpha peptide (Perkin Elmer TRF0130), and 3 uM, 100 uM or 1 mM ATP (as specified). […] The reaction was read on a PHERAstar FS plate reader (BMG Labtech). IC50 determination was performed by fitting percent control activity versus the log of the inhibitor concentration using the IDBS XLFit and GraphPad Prism 5.0 software.

ALK2 = ALK2 (Homo sapiens (Human), UniProt Q04771); experiment: ALK2 Cellular Assay (phospho SMAD1 HTRF, BMP-7 stimulated HeLa cells); format: cell-based; details: read-out: ALK2 Cellular Assay PSMAD
ALK2, sequence (Q04771 21-509): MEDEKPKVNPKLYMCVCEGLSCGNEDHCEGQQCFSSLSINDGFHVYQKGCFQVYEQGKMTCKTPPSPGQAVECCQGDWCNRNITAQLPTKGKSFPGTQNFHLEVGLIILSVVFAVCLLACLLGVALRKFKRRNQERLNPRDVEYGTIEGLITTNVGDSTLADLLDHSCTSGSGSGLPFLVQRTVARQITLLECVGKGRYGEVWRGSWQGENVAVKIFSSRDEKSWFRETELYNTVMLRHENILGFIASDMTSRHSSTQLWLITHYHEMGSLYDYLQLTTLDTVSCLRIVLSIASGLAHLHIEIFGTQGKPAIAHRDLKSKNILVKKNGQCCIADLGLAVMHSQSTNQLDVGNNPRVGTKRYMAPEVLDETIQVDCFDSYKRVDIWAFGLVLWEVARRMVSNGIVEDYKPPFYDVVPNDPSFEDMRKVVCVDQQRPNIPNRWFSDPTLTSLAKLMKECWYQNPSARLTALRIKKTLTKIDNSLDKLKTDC
Description: HeLa cells were cultured in MEM media with 10% FBS. […] HeLa cells were plated in 96 well flat bottomed plate at 50,000 cells per well and incubated overnight. Next day, media was removed and 50 μL of fresh complete media was added. 5 μL compound was added to cells (3 μM final concentration at highest) and incubated for 60 min at 37° C. 200 ng/ml BMP-7 was added and incubated for 30 min at 37° C. After incubation, the media was removed, washed 2×PBS, and proceeded with HTRF kit according to Cisbio HTRF kit instructions for measuring the Phospho SMAD1 (S463/S465). Finally, both the donor and acceptor were added into 384 well plates and incubated at room temperature overnight and the HTRF signal was measured via Pherastar the next day.

FGFR1 (UP) = FGFR1 (UP) (Homo sapiens (Human), UniProt P11362); experiment: FGFR Enzymatic Assay, FGFR1 un-phosphorylated
FGFR1 (UP), sequence (P11362 22-822): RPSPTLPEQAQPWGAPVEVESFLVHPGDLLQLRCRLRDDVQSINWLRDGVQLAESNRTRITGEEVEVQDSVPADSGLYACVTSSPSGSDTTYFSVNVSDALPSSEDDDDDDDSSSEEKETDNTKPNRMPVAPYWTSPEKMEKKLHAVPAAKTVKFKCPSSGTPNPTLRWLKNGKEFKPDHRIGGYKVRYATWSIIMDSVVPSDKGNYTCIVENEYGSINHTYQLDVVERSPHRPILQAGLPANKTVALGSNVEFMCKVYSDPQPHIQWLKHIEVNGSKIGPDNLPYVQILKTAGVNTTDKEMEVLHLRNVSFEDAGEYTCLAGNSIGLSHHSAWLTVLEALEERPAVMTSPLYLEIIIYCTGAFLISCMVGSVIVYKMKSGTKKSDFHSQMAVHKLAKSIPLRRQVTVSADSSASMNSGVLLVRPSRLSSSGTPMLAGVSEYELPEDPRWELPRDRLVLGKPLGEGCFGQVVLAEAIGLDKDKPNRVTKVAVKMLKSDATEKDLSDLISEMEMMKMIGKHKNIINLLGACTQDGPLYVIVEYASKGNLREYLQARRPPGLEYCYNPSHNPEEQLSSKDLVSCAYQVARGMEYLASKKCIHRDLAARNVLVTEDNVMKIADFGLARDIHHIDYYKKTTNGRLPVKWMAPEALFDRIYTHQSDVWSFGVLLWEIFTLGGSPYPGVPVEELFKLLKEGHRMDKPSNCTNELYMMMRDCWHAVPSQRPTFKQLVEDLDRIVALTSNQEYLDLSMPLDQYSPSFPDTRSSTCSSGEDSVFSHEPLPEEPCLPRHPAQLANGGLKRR

FGFR3 (UP) = FGFR3 (UP) (Homo sapiens (Human), UniProt P22607); experiment: FGFR Enzymatic Assay, FGFR3 un-phosphorylated
FGFR3 (UP), sequence (P22607 23-806): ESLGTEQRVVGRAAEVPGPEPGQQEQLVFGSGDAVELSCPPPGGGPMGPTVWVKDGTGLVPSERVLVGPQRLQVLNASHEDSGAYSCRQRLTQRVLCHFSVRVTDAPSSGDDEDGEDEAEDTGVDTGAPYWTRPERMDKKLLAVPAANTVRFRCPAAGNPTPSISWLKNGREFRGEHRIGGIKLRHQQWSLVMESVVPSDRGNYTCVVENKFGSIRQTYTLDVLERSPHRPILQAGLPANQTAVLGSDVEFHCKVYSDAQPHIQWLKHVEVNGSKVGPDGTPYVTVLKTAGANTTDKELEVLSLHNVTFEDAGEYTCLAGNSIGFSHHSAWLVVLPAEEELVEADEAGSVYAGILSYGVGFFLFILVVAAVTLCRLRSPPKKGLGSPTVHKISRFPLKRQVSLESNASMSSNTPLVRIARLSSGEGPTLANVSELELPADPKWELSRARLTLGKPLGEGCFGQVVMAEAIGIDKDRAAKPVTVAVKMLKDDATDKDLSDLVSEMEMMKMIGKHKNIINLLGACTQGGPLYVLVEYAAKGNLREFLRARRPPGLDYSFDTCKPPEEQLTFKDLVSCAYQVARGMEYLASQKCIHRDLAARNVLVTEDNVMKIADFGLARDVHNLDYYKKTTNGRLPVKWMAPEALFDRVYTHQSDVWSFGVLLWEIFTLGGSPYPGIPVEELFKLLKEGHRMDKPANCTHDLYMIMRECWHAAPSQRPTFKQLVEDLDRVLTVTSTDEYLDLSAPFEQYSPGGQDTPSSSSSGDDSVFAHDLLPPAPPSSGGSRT

FGFR2 (P) = FGFR2 (P) (Homo sapiens (Human), UniProt P21802); experiment: FGFR Enzymatic Assay, FGFR2 phosphorylated; details: phosphorylated enzyme, ATP near or below Km
FGFR2 (P), sequence (P21802 22-821): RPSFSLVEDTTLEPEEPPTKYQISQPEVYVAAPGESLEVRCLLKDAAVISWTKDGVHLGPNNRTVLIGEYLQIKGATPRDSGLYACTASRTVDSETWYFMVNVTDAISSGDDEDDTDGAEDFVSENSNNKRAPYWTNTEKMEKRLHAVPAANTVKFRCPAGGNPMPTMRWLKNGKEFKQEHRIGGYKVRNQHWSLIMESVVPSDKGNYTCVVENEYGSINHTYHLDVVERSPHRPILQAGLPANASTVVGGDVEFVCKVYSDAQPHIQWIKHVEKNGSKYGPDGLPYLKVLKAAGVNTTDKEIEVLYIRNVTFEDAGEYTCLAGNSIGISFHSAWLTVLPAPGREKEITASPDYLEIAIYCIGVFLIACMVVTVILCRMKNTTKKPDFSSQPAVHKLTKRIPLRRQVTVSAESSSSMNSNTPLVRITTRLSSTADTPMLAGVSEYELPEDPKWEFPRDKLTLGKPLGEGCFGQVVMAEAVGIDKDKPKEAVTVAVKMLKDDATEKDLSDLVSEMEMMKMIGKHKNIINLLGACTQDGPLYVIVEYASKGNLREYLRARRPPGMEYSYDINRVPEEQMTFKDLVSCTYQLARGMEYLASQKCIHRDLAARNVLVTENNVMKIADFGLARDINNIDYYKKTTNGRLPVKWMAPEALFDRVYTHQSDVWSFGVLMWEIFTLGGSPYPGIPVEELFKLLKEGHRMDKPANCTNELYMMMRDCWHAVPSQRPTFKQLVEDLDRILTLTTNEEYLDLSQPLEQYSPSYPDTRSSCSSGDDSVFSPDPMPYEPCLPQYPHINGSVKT

RT112 cells = experiment: Luminescent Viability Assay (LVA, FGFR3); format: cell-based; details: Homo sapiens, RT-112, 72 h, 3 days, CellTiter-Glo
Description: RT112 cells were purchased from ATCC (Manassas, Va.) and maintained in RPMI, 10% FBS (Gibco/Life Technologies). To measure the effect of test compounds on the viability of cells, the cells were plated with RPMI 10% FBS (5×10^3 cells/well/in 50 μL) into black 96-well Greiner polystyrene in the presence or absence of 50 μl of a concentration range of test compounds. After 3 days, 100 μl of CellTiter-Glo Reagent (Promega) was added. Luminescence was read with a TopCount (PerkinElmer). IC50 determination was performed by fitting the curve of percent inhibition versus the log of the inhibitor concentration using the GraphPad Prism 5.0 software.

[1] = read-out: ALK2 3 μM IC50, 3 uM ATP
[2] = read-out: ALK2 100 μM IC50, 100 uM ATP
[3] = HeLa cells, 200 ng/ml BMP-7, Phospho SMAD1 (S463/S465) HTRF
[4] = read-out: FGFR1 (UP) IC50, un-phosphorylated enzyme, ATP near or below Km
[5] = read-out: FGFR3 (UP) IC50, un-phosphorylated enzyme, ATP near or below Km
[6] = read-out: ALK2 1 mM IC50, 1 mM ATP

ALK2 (aa 147-end), sequence (Q04771 147-509): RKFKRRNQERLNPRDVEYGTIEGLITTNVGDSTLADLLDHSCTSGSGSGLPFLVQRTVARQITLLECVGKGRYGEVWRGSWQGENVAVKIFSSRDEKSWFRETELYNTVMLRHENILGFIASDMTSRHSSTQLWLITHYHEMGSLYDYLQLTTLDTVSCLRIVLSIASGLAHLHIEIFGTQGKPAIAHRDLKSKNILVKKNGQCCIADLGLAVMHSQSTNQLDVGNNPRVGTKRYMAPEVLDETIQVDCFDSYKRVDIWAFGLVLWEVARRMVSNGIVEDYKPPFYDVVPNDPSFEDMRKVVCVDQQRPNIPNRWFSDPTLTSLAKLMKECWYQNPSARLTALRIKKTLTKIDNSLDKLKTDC
FGFR2 (UP), sequence (P21802 22-821): as the sequence (P21802 22-821) above

| SMILES | IC50 (FGFR2 (UP)) [nM] | IC50 (ALK2 (aa 147-end); [1]) [nM] | IC50 (ALK2 (aa 147-end); [2]) [nM] | IC50 (ALK2; [3]) [nM] | IC50 (FGFR1 (UP)) [nM] | IC50 (FGFR3 (UP)) [nM] | IC50 (FGFR3 (UP); [5]) [nM] | further results |
| --- | --- | --- | --- | --- | --- | --- | --- | --- |
| COC(=O)N1C[C@@H](C)N(c2ncc3[nH]nc(-c4ccc(N5CCN(C(C)CO)CC5)cc4)c3n2)[C@@H](C)C1 (stereo partly drawn) [Example 29, Methyl (3R,5S)-4-(3-(4-(4-(1-hydroxypropan-2-yl)piperazin-1-yl)phenyl)-1H-pyrazolo[4,3-d]pyrimidin-5-yl)-3,5-dimethylpiperazine-1-carboxylate] | 500 to 2000 | < 100 | < 100 | < 100 | – | – | – | – |
| COC(=O)N1C[C@@H](C)N(c2ncc3[nH]nc(-c4ccc(N5CCN(C)CC5)c(F)c4)c3n2)[C@@H](C)C1 [Example 23, Methyl (3R,5S)-4-(3-(3-fluoro-4-(4-methylpiperazin-1-yl)phenyl)-1H-pyrazolo[4,3-d]pyrimidin-5-yl)-3,5-dimethylpiperazine-1-carboxylate] | 100 to 500 | < 100 | < 100 | 100 to 500 | 100 to 500 | 100 to 500 | – | IC50 (ALK2 (aa 147-end); ALK2 1 mM IC50, 1 mM ATP): 100 to 500 nM |
| C[C@@H]1CN(c2ccc(-c3n[nH]c4cnc(N5[C@@H]6CC[C@H]5CN(C(=O)C5CC5)C6)nc34)cn2)CCN1 [Example 13, Cyclopropyl((1R,5S)-8-(3-(6-((R)-3-methylpiperazin-1-yl)pyridin-3-yl)-1H-pyrazolo[4,3-d]pyrimidin-5-yl)-3,8-diazabicyclo[3.2.1]octan-3-yl)methanone] | 100 to 500 | < 100 | < 100 | – | 500 to 2000 | 100 to 500 | – | IC50 (ALK2 (aa 147-end); ALK2 1 mM IC50, 1 mM ATP): 100 to 500 nM; IC50 (ALK2): 100 to 500 nM |
| C[C@@H]1CCC[C@H](C)N1c1ncc2[nH]nc(-c3ccc(N4CCN(C)CC4)cc3)c2n1 [Example 16, 5-((2R,6S)-2,6-Dimethylpiperidin-1-yl)-3-(4-(4-methylpiperazin-1-yl)phenyl)-1H-pyrazolo[4,3-d]pyrimidine] | 100 to 500 | < 100 | – | 500 to 2000 | 100 to 500 | 100 to 500 | – | IC50 (ALK2 (aa 147-end); ALK2 1 mM IC50, 1 mM ATP): 100 to 500 nM |
| COC(=O)N1C[C@@H](C)N(c2ncc3[nH]nc(-c4ccc(N5CCO[C@H](C)C5)nc4)c3n2)[C@@H](C)C1 [Example 32, Methyl (3R,5S)-3,5-dimethyl-4-(3-(6-((R)-2-methylmorpholino)pyridin-3-yl)-1H-pyrazolo[4,3-d]pyrimidin-5-yl)piperazine-1-carboxylate] | 500 to 2000 | < 100 | < 100 | 100 to 500 | – | 100 to 500 | – | IC50 (ALK2 (aa 147-end); ALK2 1 mM IC50, 1 mM ATP): 100 to 500 nM; IC50 (FGFR1 (UP); [4]): > 2000 nM |
| COC(=O)N1C[C@@H](C)N(c2ncc3[nH]nc(-c4ccc(N5CCN(C6CCOCC6)CC5)cc4)c3n2)[C@@H](C)C1 [Example 30, Methyl (3R,5S)-3,5-dimethyl-4-(3-(4-(4-(tetrahydro-2H-pyran-4-yl)piperazin-1-yl)phenyl)-1H-pyrazolo[4,3-d]pyrimidin-5-yl)piperazine-1-carboxylate] | 100 to 500 | < 100 | < 100 | 100 to 500 | – | – | – | – |
| CN1CC2CCC(C1=O)N2c1ncc2[nH]nc(-c3cnn(-c4ccc5nccn5c4)c3)c2n1 (stereo not drawn) [Example 75, 8-(3-(1-(Imidazo[1,2-a]pyridin-6-yl)-1H-pyrazol-4-yl)-1H-pyrazolo[4,3-d]pyrimidin-5-yl)-3-methyl-3,8-diazabicyclo[3.2.1]octan-2-one] | – | – | – | – | – | – | < 100 | IC50 (ALK2 (aa 147-end); ALK2 3 μM IC50, 3 uM ATP): 500 to 2000 nM; IC50 (ALK2 (aa 147-end); ALK2 100 μM IC50, 100 uM ATP): 500 to 2000 nM; IC50 (FGFR2 (P); read-out: FGFR2 (P) IC50): < 100 nM; IC50 (RT112 cells): 500 to 2000 nM; IC50 (FGFR1 (UP); [4]): < 100 nM |
| Cn1cc(-c2n[nH]c3cnc(N4CCc5ncccc5C4)nc23)cn1 [Example 40, 6-(3-(1-Methyl-1H-pyrazol-4-yl)-1H-pyrazolo[4,3-d]pyrimidin-5-yl)-5,6,7,8-tetrahydro-1,6-naphthyridine] | – | – | – | – | 500 to 2000 | – | < 100 | IC50 (ALK2 (aa 147-end); ALK2 3 μM IC50, 3 uM ATP): 500 to 2000 nM; IC50 (ALK2 (aa 147-end); ALK2 100 μM IC50, 100 uM ATP): 500 to 2000 nM; IC50 (FGFR2 (P); FGFR2 (P) IC50 (nM)): 100 to 500 nM; IC50 (RT112 cells): 500 to 2000 nM |
| COC(=O)N1C[C@@H](C)N(c2ncc3[nH]nc(-c4ccc(N5CCC(O)CC5)cc4)c3n2)[C@@H](C)C1 [Example 34, Methyl (3R,5S)-4-(3-(4-(4-hydroxypiperidin-1-yl)phenyl)-1H-pyrazolo[4,3-d]pyrimidin-5-yl)-3,5-dimethylpiperazine-1-carboxylate] | 500 to 2000 | – | – | 500 to 2000 | – | – | – | IC50 (ALK2 (aa 147-end); ALK2 3 μM IC50, 3 uM ATP): 100 to 500 nM; IC50 (ALK2 (aa 147-end); [6]): > 2000 nM; IC50 (FGFR1 (UP); [4]): > 2000 nM |
| COC(=O)N1C[C@@H](C)N(c2ncc3[nH]nc(-c4ccc(N5CCN[C@H](C)C5)nc4)c3n2)[C@@H](C)C1 [Example 17, Methyl (3R,5S)-3,5-dimethyl-4-(3-(6-((R)-3-methylpiperazin-1-yl)pyridin-3-yl)-1H-pyrazolo[4,3-d]pyrimidin-5-yl)piperazine-1-carboxylate] | – | < 100 | < 100 | < 100 | – | – | < 100 | IC50 (FGFR2 (UP); read-out: FGFR2 (UP) IC50, un-phosphorylated enzyme, ATP near or below Km): < 100 nM; IC50 (ALK2 (aa 147-end); [6]): < 100 nM |
| CNC(=O)c1ccc(-c2n[nH]c3cnc(N4[C@H](C)CN(C(=O)OC)C[C@@H]4C)nc23)cc1 [Example 26, Methyl (3R,5S)-3,5-dimethyl-4-(3-(4-(methylcarbamoyl)phenyl)-1H-pyrazolo[4,3-d]pyrimidin-5-yl)piperazine-1-carboxylate] | 100 to 500 | < 100 | – | – | 500 to 2000 | 100 to 500 | – | IC50 (ALK2 (aa 147-end); [6]): > 2000 nM |
| CN1CCN(c2ccc(-c3n[nH]c4cnc(N5C6CCC5C(=O)N(C)C6)nc34)cn2)CC1 (stereo not drawn) [Example 60, 3-Methyl-8-(3-(6-(4-methylpiperazin-1-yl)pyridin-3-yl)-1H-pyrazolo[4,3-d]pyrimidin-5-yl)-3,8-diazabicyclo[3.2.1]octan-2-one] | – | < 100 | – | – | – | – | < 100 | IC50 (ALK2 (aa 147-end); ALK2 100 μM IC50, 100 uM ATP): 500 to 2000 nM; IC50 (FGFR2 (P); read-out: FGFR2 (P) IC50): < 100 nM; IC50 (RT112 cells): 100 to 500 nM; IC50 (FGFR1 (UP); [4]): < 100 nM |
| COC(=O)N1C[C@@H](C)N(c2ncc3[nH]nc(-c4ccc(N5CCN(C(C)(C)C(=O)O)CC5)cc4)c3n2)[C@@H](C)C1 [Example 31, 2-(4-(4-(5-((2R,6S)-4-(Methoxycarbonyl)-2,6-dimethylpiperazin-1-yl)-1H-pyrazolo[4,3-d]pyrimidin-3-yl)phenyl)piperazin-1-yl)-2-methylpropanoic acid] | 100 to 500 | < 100 | < 100 | < 100 | – | – | – | – |
| COC(=O)N1C[C@@H](C)N(c2ncc3[nH]nc(-c4ccc(C5CCN(CCO)C5)cc4)c3n2)[C@@H](C)C1 (stereo partly drawn) [Example 28, Methyl (3R,5S)-4-(3-(4-(1-(2-hydroxyethyl)pyrrolidin-3-yl)phenyl)-1H-pyrazolo[4,3-d]pyrimidin-5-yl)-3,5-dimethylpiperazine-1-carboxylate] | 100 to 500 | < 100 | < 100 | < 100 | 500 to 2000 | – | – | – |
| Cn1cc(-c2n[nH]c3cnc(N4C5CCC4C(=O)N(CCF)C5)nc23)cn1 (stereo not drawn) [Example 51, 3-(2-Fluoroethyl)-8-(3-(1-methyl-1H-pyrazol-4-yl)-1H-pyrazolo[4,3-d]pyrimidin-5-yl)-3,8-diazabicyclo[3.2.1]octan-2-one] | – | – | – | – | 100 to 500 | – | < 100 | IC50 (ALK2 (aa 147-end); ALK2 3 μM IC50, 3 uM ATP): 100 to 500 nM; IC50 (ALK2 (aa 147-end); ALK2 100 μM IC50, 100 uM ATP): 500 to 2000 nM; IC50 (FGFR2 (P); FGFR2 (P) IC50 (nM)): 100 to 500 nM; IC50 (RT112 cells): 500 to 2000 nM |
